Experimental data as given in patent US9163012B2, “Carbamate and urea inhibitors of 11β-hydroxysteroid dehydrogenase 1” (Vitae Pharmaceuticals, Inc., priority 2009, dated 2015).
Read-outs that look alike come from different tables or passages of the source.

Biological target: 11β-HSD1 (Homo sapiens (Human), UniProt P28845)
Assay: Biological Test Example 1: inhibition of a microsomal preparation of 11β-HSD1 (SPA)
Format: biochemical
Details: for inhibition at 0.1 µM: read-out: Average % inhibition at 100 nM, Biological Test Example 1; for inhibition at 0.111 µM: 111 nM compound, read-out: Average % inhibition at 111 nM
Method: All reactions were carried out at rt in 96 well clear flexible PET Microbeta plates (PerkinElmer). […] After a 10 minute pre-incubation, 50 μL of enzyme solution containing microsomes isolated from CHO cells overexpressing human 11-HSD1 (10-20 μg/ml of total protein) was added, and the plates were incubated for 90 minutes at rt. The reaction was stopped by adding 50 μl of the SPA beads suspension containing 10 μM […], 5 mg/ml protein A coated YSi SPA beads (GE Healthcare) and 3.3 μg/ml of anti-cortisol antibody (East Coast Biologics) in Superblock buffer (Bio-Rad). The plates were shaken for 120 minutes at rt, and the SPA signal corresponding to [^3H]cortisol was measured on a Microbeta plate reader.

[1] = Biological Test Example 1, microsomes from CHO cells overexpressing human 11β-HSD1, read-out: IC50 Range
[2] = Biological Test Example 1, read-out: IC50
[3] = Biological Test Example 1, 100 nM compound

Chain of 11β-HSD1 (P28845 whole entry): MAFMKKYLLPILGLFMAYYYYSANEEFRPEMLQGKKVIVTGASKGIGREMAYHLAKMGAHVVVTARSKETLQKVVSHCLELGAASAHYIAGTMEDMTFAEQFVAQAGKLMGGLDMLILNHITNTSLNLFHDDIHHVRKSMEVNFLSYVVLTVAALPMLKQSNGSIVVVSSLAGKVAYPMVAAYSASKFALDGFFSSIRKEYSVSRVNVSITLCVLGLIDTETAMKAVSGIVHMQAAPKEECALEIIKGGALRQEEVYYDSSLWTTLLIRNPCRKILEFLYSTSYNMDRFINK

| SMILES | IC50 [1] | IC50 [2] | inhibition at 0.1 µM (100 nM compound) | inhibition at 0.111 µM (Biological Test Example 1) | Average % inhibition at 100 nM [3] | Average % inhibition at 100 nM | IC50 (read-out: IC50) | IC50 (read-out: IC50 Range) |
| --- | --- | --- | --- | --- | --- | --- | --- | --- |
| NC(=O)[C@]12CC3CC(C1)[C@@H](OC(=O)N1CCC[C@@H]1c1nc(-c4cc[nH]c(=O)c4)cs1)C(C3)C2 [EXAMPLE 54, (R)-trans-1-carbamoyl-4-adamantyl 2-(4-(2-oxo-1,2-dihydropyridin-4-yl)thiazol-2-yl)pyrrolidine-1-carboxylate] | < 100 nM | 2.67 nM | 95.4% |  |  |  |  |  |
| Cc1nc2cc(F)ccc2n1C1CCN(C(=O)OC2C3CC4CC2CC(C(N)=O)(C4)C3)C1 (single isomer, unassigned; isomer 2) [EXAMPLE 74 Isomer 2] |  |  |  |  |  | 83.2% | 16.6 nM | < 100 nM |
| Cc1nnc(C2CCCN(C(=O)OC3C4CC5CC3CC(O)(C5)C4)C2)o1 (centres unmarked) [EXAMPLE 25, 1-hydroxy-4-adamantyl 3-(5-methyl-1,3,4-oxadiazol-2-yl)piperidine-1-carboxylate] | < 100 nM | 39.5 nM | 69.9% |  |  |  |  |  |
| O=C(O)c1ccc(C2CCCN(C(=O)OC3C4CC5CC(C4)CC3C5)C2)cc1 (centres unmarked) [EXAMPLE 18, 4-(1-(2-adamantyloxycarbonyl)piperidin-3-yl)benzoic acid] | < 100 nM | 27.8 nM |  | 82.2% |  |  |  |  |
| CC(C)(O)CC1(c2ccccc2)CCN(C(=O)O[C@H]2C3CC4CC2C[C@](C(N)=O)(C4)C3)C1 (stereo partly drawn) [EXAMPLE 49, trans-1-carbamoyl-4-adamantyl 3-(2-hydroxy-2-methylpropyl)-3-phenylpyrrolidine-1-carboxylate] | < 100 nM | 2.07 nM | 91.6% |  |  |  |  |  |
| NC(=O)[C@]12CC3CC(C1)[C@@H](OC(=O)N1CC[C@@H](n4c(=O)[nH]c5cccc(Cl)c54)C1)C(C3)C2 [EXAMPLE 68, (R)-trans-1-carbamoyl-4-adamantyl 3-(7-chloro-2-oxo-2,3-dihydro-1H-benzo[d]imidazol-1-yl)pyrrolidine-1-carboxylate] | < 100 nM | 0.46 nM | 96.9% |  |  |  |  |  |
| Cn1ccc(-c2cnc(C3CCN(C(=O)OC4C5CC6CC4CC(C(N)=O)(C6)C5)C3)nc2)cc1=O (single isomer, unassigned) [EXAMPLE 57 Isomer 2, 1-carbamoyl-4-adamantyl 3-(5-(1-methyl-2-oxo-1,2-dihydropyridin-4-yl)pyrimidin-2-yl)pyrrolidine-1-carboxylate] | > 100 nM | > 100 nM | 18.1% |  |  |  |  |  |
| NC(=O)[C@]12CC3CC(C1)[C@@H](OC(=O)N1CC[C@H](n4c(=O)[nH]c5cccc(Cl)c54)C1)C(C3)C2 [EXAMPLE 67, (S)-trans-1-carbamoyl-4-adamantyl 3-(7-chloro-2-oxo-2,3-dihydro-1H-benzo[d]imidazol-1-yl)pyrrolidine-1-carboxylate] | < 100 nM | 0.68 nM | 97.7% |  |  |  |  |  |
| NC(=O)[C@]12CC3CC(C1)[C@@H](OC(=O)N1CC[C@@H](Oc4ccc(C(F)(F)F)cn4)C1)C(C3)C2 [EXAMPLE 5, (R)-(trans-(1-carbamoyl-4-adamantyl)) 3-(5-(trifluoromethyl)pyridin-2-yloxy)pyrrolidine-1-carboxylate] | < 100 nM | 0.99 nM | 94.9% |  |  |  |  |  |
| Cn1c(C2CCN(C(=O)O[C@H]3C4CC5CC3C[C@](C(N)=O)(C5)C4)C2)nc2ccccc21 (stereo partly drawn) [EXAMPLE 31, (trans-1-carbamoyl-4-adamantyl) 3-(1-methyl-1H-benzo[d]imidazol-2-yl)pyrrolidine-1-carboxylate] | < 100 nM | 91.7 nM | 44.1% |  |  |  |  |  |
| O=C(O)COCC1(c2ccccc2)CCN(C(=O)OC2C3CC4CC(C3)CC2C4)CC1 (centres unmarked) [EXAMPLE 16, 2-((1-(2-adamantyloxycarbonyl)-4-phenylpiperidin-4-yl)methoxy)acetic acid] | < 100 nM | 43.8 nM |  | 72.3% |  |  |  |  |
| Cn1c(=O)n([C@@H]2CCN(C(=O)O[C@H]3C4CC5CC3C[C@](C(N)=O)(C5)C4)C2)c2ncc(Cl)cc21 [EXAMPLE 29, (R) (trans-1-carbamoyl-4-adamantyl) 3-(6-chloro-1-methyl-2-oxo-1H-imidazo[4,5-b]pyridin-3(2H)-yl)pyrrolidine-1-carboxylate] | < 100 nM | 1 nM | 99.2% |  |  |  |  |  |
| NC(=O)[C@]12CC3CC(C1)[C@@H](OC(=O)N1CC[C@H](n4c(=O)[nH]c5cc(F)ccc54)C1)C(C3)C2 [EXAMPLE 63, (S)-trans-1-carbamoyl-4-adamantyl 3-(5-fluoro-2-oxo-2,3-dihydro-1H-benzo[d]imidazol-1-yl)pyrrolidine-1-carboxylate] | < 100 nM | 1.01 nM | 91.2% |  |  |  |  |  |
| Cn1c(=O)n([C@H]2CCN(C(=O)O[C@H]3C4CC5CC3C[C@](C(N)=O)(C5)C4)C2)c2c(Cl)cccc21 [EXAMPLE 71, (S)-trans-1-carbamoyl-4-adamantyl 3-(7-chloro-3-methyl-2-oxo-2,3-dihydro-1H-benzo[d]imidazol-1-yl)pyrrolidine-1-carboxylate] | < 100 nM | 0.67 nM | 96.6% |  |  |  |  |  |
| O=C(OC1C2CC3CC(C2)CC1C3)N1CCC[C@@H]1c1nc(-c2ccncc2)cs1 (stereo partly drawn) [EXAMPLE 50, (R)-2-adamantyl 2-(4-(pyridin-4-yl)thiazol-2-yl)pyrrolidine-1-carboxylate] | < 100 nM | 0.91 nM | 98.2% |  |  |  |  |  |
| Cc1nc2cc(F)ccc2n1C1CCN(C(=O)OC2C3CC4CC2CC(C(N)=O)(C4)C3)C1 (single isomer, unassigned; isomer 1) [EXAMPLE 74 Isomer 1] |  |  |  |  |  | 91.9% | 2.22 nM | < 100 nM |

Further lines, with some results ahead:

| IC50 [1] | IC50 [2] | inhibition at 0.1 µM (100 nM compound) | inhibition at 0.111 µM (Biological Test Example 1) | Average % inhibition at 100 nM [3] | SMILES | Average % inhibition at 100 nM | IC50 (read-out: IC50) | IC50 (read-out: IC50 Range) |
| --- | --- | --- | --- | --- | --- | --- | --- | --- |
| < 100 nM | 3.34 nM |  |  | 93.1% | Cc1ccnc(C2CCN(C(=O)OC3C4CC5CC3CC(C(N)=O)(C5)C4)C2)n1 (single isomer, unassigned) [EXAMPLE 38 Isomer 1, 1-carbamoyl-4-adamantyl 3-(4-methylpyrimidin-2-yl)pyrrolidine-1-carboxylate] |  |  |  |
| < 100 nM | 83.7 nM |  |  | 59.1% | Cc1ncc(C2CCN(C(=O)OC3C4CC5CC3CC(C(N)=O)(C5)C4)C2)cn1 (single isomer, unassigned) [EXAMPLE 36 Isomer 1, 1-carbamoyl-4-adamantyl 3-(2-methylpyrimidin-5-yl)pyrrolidine-1-carboxylate] |  |  |  |
| < 100 nM | 33.3 nM |  |  | 69.4% | Cn1cc(-c2cnc(C3CCN(C(=O)OC4C5CC6CC4CC(C(N)=O)(C6)C5)C3)nc2)ccc1=O (single isomer, unassigned) [EXAMPLE 58 Isomer 1, trans-1-carbamoyl-4-adamantyl 3-(5-(1-methyl-6-oxo-1,6-dihydropyridin-3-yl)pyrimidin-2-yl)pyrrolidine-1-carboxylate] |  |  |  |
| < 100 nM | 1.61 nM |  |  | 91.6% | Cc1ccc(C2CCN(C(=O)OC3C4CC5CC3CC(C(N)=O)(C5)C4)C2)nc1 (single isomer, unassigned) [EXAMPLE 35 Isomer 1, trans-1-carbamoyl-4-adamantyl 3-(5-methylpyridin-2-yl)pyrrolidine-1-carboxylate] |  |  |  |
| < 100 nM | 1.91 nM |  |  | 84.2% | NC(=O)[C@]12CC3CC(C1)[C@@H](OC(=O)N1CCC(c4ncc(Cl)cn4)C1)C(C3)C2 (single isomer, unassigned) [EXAMPLE 26 Isomer 1b, (1-carbamoyl-4-adamantyl) 3-(5-chloropyrimidin-2-yl)pyrrolidine-1-carboxylate] |  |  |  |
| < 100 nM | 1.12 nM |  |  | 94.5% | NC(=O)[C@]12CC3CC(C1)[C@@H](OC(=O)N1CCC(c4ncc(Cl)cn4)C1)C(C3)C2 (single isomer, unassigned) [EXAMPLE 26, trans-(1-carbamoyl-4-adamantyl) 3-(5-chloropyrimidin-2-yl)pyrrolidine-1-carboxylate] |  |  |  |
| < 100 nM | 1.04 nM | 97% |  |  | NC(=O)[C@]12CC3CC(C1)[C@@H](OC(=O)N1CC[C@@H](n4c(=O)[nH]c5cc(Cl)cnc54)C1)C(C3)C2 [EXAMPLE 69, (R)-trans-1-carbamoyl-4-adamantyl 3-(6-chloro-2-oxo-1H-imidazo[4,5-b]pyridin-3(2H)-yl)pyrrolidine-1-carboxylate] |  |  |  |
| > 100 nM | > 100 nM |  |  | 10.7% | Cc1ccnc(C2CCN(C(=O)OC3C4CC5CC3CC(C(N)=O)(C5)C4)C2)n1 (single isomer, unassigned) [EXAMPLE 38 Isomer 2, 1-carbamoyl-4-adamantyl 3-(4-methylpyrimidin-2-yl)pyrrolidine-1-carboxylate] |  |  |  |
|  |  |  |  | 2.4% | COc1cnc(C2CCN(C(=O)OC3C4CC5CC3CC(C(N)=O)(C5)C4)C2)nc1 (single isomer, unassigned) [EXAMPLE 44 Isomer 2, 1-carbamoyl-4-adamantyl 3-(5-methoxypyrimidin-2-yl)pyrrolidine-1-carboxylate] |  |  |  |
|  |  |  |  | 98.6% | O=C(OC1C2CC3CC1CC(O)(C3)C2)N1CCC(c2ncc(Cl)cn2)C1 (single isomer, unassigned) [EXAMPLE 24 Isomer 1, trans-1-hydroxy-4-adamantyl 3-(5-chloropyrimidin-2-yl)pyrrolidine-1-carboxylate] |  |  |  |
